According to ChEMBL document CHEMBL4622979, “Non-rigid Diarylmethyl Analogs of Baloxavir as Cap-Dependent Endonuclease Inhibitors of Influenza Viruses” (J Med Chem, 2020):

Tests used:
[1] = Cytotoxicity against human MRC5 cells assessed as reduction in cell viability by ATP bioluminescence assay; type: cell-based
[2] = Acute toxicity in CD1 mouse assessed as effect on lung at 2000 mg/kg, po measured after 2 weeks by macroscopic analysis; type: organism-based; conditions: in vivo, 336 h
[3] = Tmax in CD1 mouse liver assessed as (12aR)-12-(Diphenylmethyl)-7-hydroxy-3,4,12,12a-tetrahydro-1H-[1,4]oxazino[3,4-c]pyrido[2,1-f ][1,2,4]triazine-6,8-dione level at 15 mg/kg, po administered as single dose measured up to 24 hrs by LC-MS/MS analysis; type: ADME, organism-based; conditions: in vivo
[4] = Half life in CD1 mouse lung assessed as (12aR)-12-(Diphenylmethyl)-7-hydroxy-3,4,12,12a-tetrahydro-1H-[1,4]oxazino[3,4-c]pyrido[2,1-f ][1,2,4]triazine-6,8-dione level at 15 mg/kg, po administered as single dose measured up to 24 hrs by LC-MS/MS analysis; type: ADME, organism-based; conditions: in vivo
[5] = Cmax in CD1 mouse lung assessed as (12aR)-12-(Diphenylmethyl)-7-hydroxy-3,4,12,12a-tetrahydro-1H-[1,4]oxazino[3,4-c]pyrido[2,1-f ][1,2,4]triazine-6,8-dione level at 15 mg/kg, po administered as single dose measured up to 24 hrs by LC-MS/MS analysis; type: ADME, organism-based; design: dose 15 mg/kg, route oral; conditions: in vivo
[6] = AUClast in CD1 mouse lung assessed as (12aR)-12-(Diphenylmethyl)-7-hydroxy-3,4,12,12a-tetrahydro-1H-[1,4]oxazino[3,4-c]pyrido[2,1-f ][1,2,4]triazine-6,8-dione level at 15 mg/kg, po administered as single dose measured up to 24 hrs by LC-MS/MS analysis; type: ADME, organism-based; conditions: in vivo
[7] = AUClast in CD1 mouse small intestine assessed as (12aR)-12-(Diphenylmethyl)-7-hydroxy-3,4,12,12a-tetrahydro-1H-[1,4]oxazino[3,4-c]pyrido[2,1-f ][1,2,4]triazine-6,8-dione level at 15 mg/kg, po administered as single dose measured up to 24 hrs by LC-MS/MS analysis; type: ADME, organism-based; conditions: in vivo
[8] = MRTlast in CD1 mouse small intestine assessed as (12aR)-12-(Diphenylmethyl)-7-hydroxy-3,4,12,12a-tetrahydro-1H-[1,4]oxazino[3,4-c]pyrido[2,1-f ][1,2,4]triazine-6,8-dione level at 15 mg/kg, po administered as single dose measured up to 24 hrs by LC-MS/MS analysis; type: ADME, organism-based; conditions: in vivo
[9] = Half life in CD1 mouse brain assessed as (12aR)-12-(Diphenylmethyl)-7-hydroxy-3,4,12,12a-tetrahydro-1H-[1,4]oxazino[3,4-c]pyrido[2,1-f ][1,2,4]triazine-6,8-dione level at 15 mg/kg, po administered as single dose measured up to 24 hrs by LC-MS/MS analysis; type: ADME, organism-based; conditions: in vivo
[10] = AUCinfinity in CD1 mouse brain assessed as (12aR)-12-(Diphenylmethyl)-7-hydroxy-3,4,12,12a-tetrahydro-1H-[1,4]oxazino[3,4-c]pyrido[2,1-f ][1,2,4]triazine-6,8-dione level at 15 mg/kg, po administered as single dose measured up to 24 hrs by LC-MS/MS analysis; type: ADME, organism-based; design: dose 15 mg/kg, time infinity, route oral; conditions: in vivo
[11] = MRTlast in CD1 mouse spleen assessed as (12aR)-12-(Diphenylmethyl)-7-hydroxy-3,4,12,12a-tetrahydro-1H-[1,4]oxazino[3,4-c]pyrido[2,1-f ][1,2,4]triazine-6,8-dione level at 15 mg/kg, po administered as single dose measured up to 24 hrs by LC-MS/MS analysis; type: ADME, organism-based; conditions: in vivo
[12] = Ratio of AUClast in CD1 mouse muscle to plasma assessed as (12aR)-12-(Diphenylmethyl)-7-hydroxy-3,4,12,12a-tetrahydro-1H-[1,4]oxazino[3,4-c]pyrido[2,1-f ][1,2,4]triazine-6,8-dione level at 15 mg/kg, po administered as single dose measured up to 24 hrs by LC-MS/MS analysis; type: ADME, organism-based; conditions: other tissue
[13] = Ratio of free drug level in CD1 mouse blood assessed as (12aR)-12-(Diphenylmethyl)-7-hydroxy-3,4,12,12a-tetrahydro-1H-[1,4]oxazino[3,4-c]pyrido[2,1-f ][1,2,4]triazine-6,8-dione level at 50 mg/kg, po to EC50 for antiviral activity against Influenza A/California/04/2009 (H1N1)pdm09 infected in MDCK cells; type: ADME, organism-based; conditions: in vivo
[14] = Cmax in CD1 mouse plasma assessed as baloxavir acid level at 15 mg/kg, po administered as single dose by LC-MS/MS analysis; type: ADME, organism-based; design: dose 15 mg/kg, route oral; conditions: in vivo
[15] = Ratio of AUClast in CD1 mouse lung to plasma assessed as baloxavir acid level at 15 mg/kg, po administered as single dose by LC-MS/MS analysis; type: ADME, organism-based; conditions: other tissue
[16] = MRTlast in CD1 mouse plasma assessed as baloxavir acid level at 15 mg/kg, po administered as single dose measured up to 24 hrs by LC-MS/MS analysis; type: ADME, organism-based; conditions: in vivo
[17] = Tmax in CD1 mouse liver assessed as baloxavir acid level at 15 mg/kg, po administered as single dose measured up to 24 hrs by LC-MS/MS analysis; type: ADME, organism-based; conditions: in vivo
[18] = Cmax in CD1 mouse kidney assessed as baloxavir acid level at 15 mg/kg, po administered as single dose measured up to 24 hrs by LC-MS/MS analysis; type: ADME, organism-based; design: dose 15 mg/kg, route oral; conditions: in vivo
[19] = AUClast in CD1 mouse kidney assessed as baloxavir acid level at 15 mg/kg, po administered as single dose measured up to 24 hrs by LC-MS/MS analysis; type: ADME, organism-based; conditions: in vivo
[20] = MRTlast in CD1 mouse kidney assessed as baloxavir acid level at 15 mg/kg, po administered as single dose measured up to 24 hrs by LC-MS/MS analysis; type: ADME, organism-based; conditions: in vivo
[21] = Elimination rate constant in CD1 mouse heart assessed as baloxavir acid level at 15 mg/kg, po administered as single dose measured up to 24 hrs by LC-MS/MS analysis; type: ADME, organism-based; conditions: in vivo
[22] = Half life in CD1 mouse heart assessed as baloxavir acid level at 15 mg/kg, po administered as single dose measured up to 24 hrs by LC-MS/MS analysis; type: ADME, organism-based; conditions: in vivo
[23] = Half life in CD1 mouse lung assessed as baloxavir acid level at 15 mg/kg, po administered as single dose measured up to 24 hrs by LC-MS/MS analysis; type: ADME, organism-based; conditions: in vivo
[24] = Tmax in CD1 mouse small intestine assessed as baloxavir acid level at 15 mg/kg, po administered as single dose measured up to 24 hrs by LC-MS/MS analysis; type: ADME, organism-based; conditions: in vivo
[25] = AUClast in CD1 mouse small intestine assessed as baloxavir acid level at 15 mg/kg, po administered as single dose measured up to 24 hrs by LC-MS/MS analysis; type: ADME, organism-based; conditions: in vivo
[26] = Elimination rate constant in CD1 mouse spleen assessed as baloxavir acid level at 15 mg/kg, po administered as single dose measured up to 24 hrs by LC-MS/MS analysis; type: ADME, organism-based; conditions: in vivo
[27] = Half life in CD1 mouse spleen assessed as baloxavir acid level at 15 mg/kg, po administered as single dose measured up to 24 hrs by LC-MS/MS analysis; type: ADME, organism-based; conditions: in vivo
[28] = Cmax in CD1 mouse muscle assessed as baloxavir acid level at 15 mg/kg, po administered as single dose measured up to 24 hrs by LC-MS/MS analysis; type: ADME, organism-based, Muscle tissue; design: dose 15 mg/kg, route oral; conditions: in vivo

## COC(=O)OCOc1c2n(ccc1=O)N(C(c1ccccc1)c1ccccc1)[C@@H]1COCCN1C2=O
[1]
  CC50: > 100 µM
[2]
  Activity: Non-Toxic
[3]
  Tmax: 0.5 h
[4]
  t1/2: 1.57 h
[5]
  Cmax: 2847 ng/g
[6]
  AUClast: 8320 ng·h/g
[7]
  AUClast: 43656 ng·h/g
[8]
  MRTlast: 1.28 h
[9]
  t1/2: 8.18 h
[10]
  AUC: 1238 ng·h/g
[11]
  MRTlast: 1.89 h
[12]
  Ratio AUC: 2.26
[13]
  Ratio: 44

## COC(=O)OCOc1c2n(ccc1=O)N([C@@H]1c3ccccc3SCc3c1ccc(F)c3F)[C@@H]1COCCN1C2=O [BALOXAVIR MARBOXIL]
[14]
  Cmax: 141 ng/mL
[15]
  Ratio AUC: 16.7
[16]
  MRTlast: 2.57 h
[17]
  Tmax: 2 h
[18]
  Cmax: 2998 ng/g
[19]
  AUClast: 21162 ng·h/g
[20]
  MRTlast: 4.27 h
[21]
  Kel: 0.2 h⁻¹
[22]
  t1/2: 3.4 h
[23]
  t1/2: 3.4 h
[24]
  Tmax: 0.5 h
[25]
  AUClast: 105778 ng·h/g
[26]
  Kel: 0.2 h⁻¹
[27]
  t1/2: 3.51 h
[28]
  Cmax: 916 ng/g
